Results on 27 molecules are retold here after patent US20240174690A1, “ANNULATED 2-AMINO-3-CYANO THIOPHENES AND DERIVATIVES FOR THE TREATMENT OF CANCER” (BOEHRINGER INGELHEIM INTERNATIONAL GMBH, priority 2021, published 2024).

SMILES strings stand for the structures.

In test [1] the test system is GP2D cells. The test is described as follows: GP2D proliferation assay (120 h) (colorectal cancer, G12D). Format: cell-based. The method, then: GP2D Proliferation Assay (120 h) (Colorectal Cancer, G12D)
GP2D cells (ATCC No. CRL-5807) are dispensed into white 384-well plates, flat and white bottom (Perkin Elmer, 6007680) at a density of 500 cells per well in 40 μl DMEM (Sigma, D6429)+1×GlutaMAX (Gibco, 35050038)+10% FCS (fetal calf serum). […] Compounds (10 mM stock in DMSO) are added at logarithmic dose series using the HP Digital Dispenser D300 (Tecan), including DMSO controls and normalizing for added DMSO. For the TO time point measurement, untreated cells are analyzed at the time of compound addition. Plates are incubated for 120 h, and cell viability is measured using CellTiter-Glo luminescent cell viability reagent (Promega product code G7570). Viability (stated as percent of control) is defined as relative luminescence units RLU of each well divided by the RLU of cells in DMSO controls. IC50 values are determined from viability measurements by non-linear regression using a four parameter model.

In test [2] the test system is MKN1 cells. The test is described as follows: MKN1 CTG proliferation assay (120 h) (gastric cancer, wt amplified). Format: cell-based. Conditions: Homo sapiens, MKN-1, assay 3, CTG 120 h, read-out: MKN1 (assay 3) IC50. As for the experimental part:
MKN1 CTG Proliferation Assay (120 h) (Gastric Cancer, Wt Amplified)
MKN1 cells (JCRB0252) are dispensed into white 384-well plates, flat and white bottom (Corning Costar, PNr.: 3570) at a density of 400 cells per well in 50 μL RPMI 1640 (PAN-Biotech, PNr.: P04-18047)+10% FCS (HyClone, PNr.: SH30084.03) (assay 1) or into white 384-well plates, flat and white bottom (Perkin Elmer, 6007680) at a density of 500 cells per well in 40 μl RPMI (Gibco, PNr.: 21875034)+10% FCS (HyClone, PNr.: SH30084.03) (assay 2) or into black 384-well plates, flat and clear bottom (Greiner, PNr. 781091) at a density of 200 cells per well in 60 μl RPMI-1640 (Gibco #A10491)+10% FCS (HyClone, PNr.: SH30084.03)+PenStrep (Gibco, PNr.15140-122) (assay 3). […] Compounds (10 mM stock in DMSO) are added at logarithmic dose series using the HP Digital Dispenser D300 (Tecan) (assay 1+2) or the ECHO acoustic liquid handler system (Beckman Coulter) (assay 3), including DMSO controls and normalizing for added DMSO. Plates are incubated for 120 h, and cell viability is measured using CellTiter-Glo luminescent cell viability reagent (Promega product code G7570). Viability (stated as percent of control) is defined as relative luminescence units RLU of each well divided by the RLU of cells in DMSO controls. IC50 values are determined from viability measurements by non-linear regression using a four-parameter model.

Test [3] deals with KRAS (WT)::SOS1 (Homo sapiens (Human), UniProt P01116, C118S). In words: KRAS::SOS1 AlphaScreen binding assay, KRAS WT. The text has this:
This assay can be used to examine the potency with which compounds according to the invention binding to (mutated) KRAS inhibit the protein-protein interaction between SOS1 and (mutated) KRAS e.g., KRAS WT, KRAS G12C, KRAS G12D, KRAS G12V, KRAS G13D. […] Low IC50 values in this assay setting are indicative of strong inhibition of protein-protein interaction between SOS1 and KRAS:
These assays measure the inhibitory effect of compounds on KRAS mutant protein-protein interactions using the Alpha Screen technology by Perkin Elmer.
The following (mutant) enzyme forms of KRAS and interacting proteins are used in these assays at the given concentrations: • KRAS (G12D) 1-169, N-terminal 6His-tag, C-terminal avi-tag (Xtal BioStructures, Inc.); final assay concentration 10 nM and SOS1 564-1049, N-terminal 229 GST-tag, TEV cleavage site (Viva Biotech Ltd); final assay concentration 5 nM; • KRAS (G12C) 1-169, N-terminal 6His-tag for purification, cleaved off, C-terminal avi-tag, biotinylated, mutations: C51S, C80L, C118S (in house); final assay concentration 7.5 nM and SOS1 564-1049, N-terminal 229 GST-tag, TEV cleavage site (Viva Biotech Ltd); final assay concentration 5 nM; • KRAS (G12V) 1-169, N-terminal 6His-tag for purification, cleaved off, C-terminal avi-tag, biotinylated, TEV cleavage site, mutation: C118S, GDP loaded (in house); final assay concentration 10 nM and SOS1 564-1049, N-terminal 229 GST-tag, TEV cleavage site (Viva Biotech Ltd); final assay concentration 10 nM; • KRAS (G13D) 1-169, N-terminal 6His-tag for purification, cleaved off, C-terminal avi-tag, biotinylated, TEV cleavage site, mutation: C118S, GDP loaded (in house); final assay concentration 10 nM and SOS1 564-1049, N-terminal 229 GST-tag, TEV cleavage site (Viva Biotech Ltd); final assay concentration 10 nM; • KRAS (WT) 1-169, N-terminal 6His-tag for purification, cleaved off, C-terminal avi-tag, biotinylated, TEV cleavage site, mutation: C118S, GDP loaded (in house); final assay concentration 10 nM and SOS1 564-1049, N-terminal 229 GST-tag, TEV cleavage site (Viva Biotech Ltd); final assay concentration 10 nM.
Test compounds dissolved in DMSO are dispensed onto assay plates (Proxiplate 384 PLUS, white, PerkinElmer; 6008289) using an Access Labcyte Workstation with the Labcyte Echo 55×. For the chosen highest assay concentration of 100 μM, 150 nL of compound solution are transferred from a 10 mM DMSO compound stock solution. A series of eleven fivefold dilutions per compound are transferred to the assay plate, compound dilutions are tested in duplicates. DMSO are added as backfill to a total volume of 150 nL.
The assays run on a fully automated robotic system in a darkened room below 100 Lux. To 150 nl of compound dilution 10 μl of a mix including KRAS mutant protein, SOS1 (final assay concentrations see above) and GDP nucleotide (Sigma G7127; final assay concentration 10 μM) in assay buffer (1×PBS, 0.1% BSA, 0.05% Tween 20) are added into columns 1-24.
After 30 minutes incubation time 5 μl of Alpha Screen bead mix in assay buffer are added into columns 1-23. Bead mix consists of AlphaLISA Glutathione Acceptor Beads (PerkinElmer, Cat No AL109) and AlphaScreen Streptavidin Donor Beads (PerkinElmer Cat No 6760002) in assay buffer at a final assay concentration of 10 μg/ml each.
Plates are kept at room temperature in a darkened incubator. After an additional 60 minutes incubation time the signal is measured in a PerkinElmer Envision HTS Multilabel Reader using the AlphaScreen specs from PerkinElmer.
Each plate contains up to 16 wells of a negative control depending on the dilution procedure (platewise or serial) (DMSO instead of test compound; with KRAS mutant::SOS1 GDP mix and bead mix; column 23) and 16 wells of a positive control (DMSO instead of test compound; with KRAS mutant::SOS1 GDP mix w/o bead mix; column 24).
As internal control known inhibitors of KRAS mutant::SOS1 interaction can be measured on each compound plate. […]
Background: Bead proximity is the source of the signal in Alpha formats.

Chain of KRAS (WT)::SOS1 (P01116 other isoform, or with tags, fused parts or gaps C118S): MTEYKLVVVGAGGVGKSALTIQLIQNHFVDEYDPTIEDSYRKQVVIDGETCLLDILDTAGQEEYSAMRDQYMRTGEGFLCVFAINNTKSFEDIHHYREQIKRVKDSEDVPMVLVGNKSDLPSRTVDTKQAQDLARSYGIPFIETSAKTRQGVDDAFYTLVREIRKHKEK

`C[C@H](Oc1cc(N2C[C@H](C)NC3(CC3)C2)nc(-c2onc3c2CCC[C@@]32CCCc3sc(N)c(C#N)c32)n1)[C@@H]1CCCN1C` [I-8]: the results for the half-maximal inhibitory concentration (IC50) in test [1] and in test [2] were 6 nM and 395 nM, respectively.

In test [1], `C[C@H](Oc1cc(N2CCNC[C@]23CCOC3)nc(-c2noc3c2CCC[C@@]32CCCc3sc(N)c(C#N)c32)n1)[C@@H]1CCCN1C` [II-50] registered an IC50 of 3 nM. As for `C[C@H](Oc1cc(N2CCNC3(CC3)C2)nc(-c2noc3c2CCC[C@@]32CCCc3sc(N)c(C#N)c32)n1)[C@@H]1CCCN1C` [II-54], the IC50 in test [3] amounted to 3 nM; in test [1] it was 1 nM. `C[C@H](Oc1cc(N2C[C@H](C)N[C@@H](C)C2)nc(-c2noc3c2CCC[C@@]32CCCc3sc(N)c(C#N)c32)n1)[C@@H]1CCCN1C` [II-56]: the IC50 in test [1] turned out to be 13 nM; in test [2], 660 nM. With `C[C@H](Oc1cc(N2CCC[C@H](O)C2)nc(-c2noc3c2CCC[C@@]32CCCc3sc(N)c(C#N)c32)n1)[C@@H]1CCCN1C` [II-57], the half-maximal inhibitory concentration (IC50) in test [1] is 164 nM. Regarding `C[C@H](Oc1cc(N2Cc3cnn(C)c3C2)nc(-c2noc3c2CCC[C@@]32CCCc3sc(N)c(C#N)c32)n1)[C@@H]1CCCN1C` [II-63], the IC50 in test [2] is 578 nM. As for `C[C@H](Oc1cc(N2CCNC2=O)nc(-c2noc3c2CCC[C@@]32CCCc3sc(N)c(C#N)c32)n1)[C@@H]1CCCN1C` [II-64], the IC50 came out at 2 nM in test [3] and 22 nM in test [1]. Take `C[C@H](Oc1cc(-n2cncn2)nc(-c2noc3c2CCC[C@@]32CCCc3sc(N)c(C#N)c32)n1)[C@@H]1CCCN1C` [II-70]: the 50% inhibitory concentration (IC50) in test [2] is 387 nM.

As to `C[C@H](Oc1cc(N2CCCC3(COC3)C2)nc(-c2noc3c2CCC[C@@]32CCCc3sc(N)c(C#N)c32)n1)[C@@H]1CCCN1C` [II-72], the half-inhibitory concentration (IC50) in test [2] was determined as 68 nM. With `C[C@H](Oc1cc(N2CCN(C)C2=O)nc(-c2noc3c2CCC[C@@]32CCCc3sc(N)c(C#N)c32)n1)[C@@H]1CCCN1C` [II-75], the half-inhibitory concentration (IC50) was 111 nM in test [1] and 108 nM in test [2]. `C[C@H](Oc1cc(-c2ccncc2)nc(-c2noc3c2CCC[C@@]32CCCc3sc(N)c(C#N)c32)n1)[C@@H]1CCCN1C` [II-78]: the IC50 in test [3] was 7 nM; in test [2] it was 533 nM. Taken in the same sequence, the figures for `C[C@H](Oc1cc(-c2cncnc2)nc(-c2noc3c2CCC[C@@]32CCCc3sc(N)c(C#N)c32)n1)[C@@H]1CCCN1C` [II-82] were 36 nM and 712 nM.

In the case of `C[C@H](Oc1cc(-c2ccccn2)nc(-c2noc3c2CCC[C@@]32CCCc3sc(N)c(C#N)c32)n1)[C@@H]1CCCN1C` [II-85], the figures for the IC50 in test [3] and in test [2] were 5 nM and 266 nM, respectively. In the case of `C[C@H](Oc1cc(-c2cn[nH]c2)nc(-c2noc3c2CCC[C@@]32CCCc3sc(N)c(C#N)c32)n1)[C@@H]1CCCN1C` [II-87], the concentration for half-maximal inhibition (IC50) in test [2] came to 302 nM. With `C[C@H](Oc1cc(-c2ccn(-c3ccccc3)n2)nc(-c2noc3c2CCC[C@@]32CCCc3sc(N)c(C#N)c32)n1)[C@@H]1CCCN1C` [II-89], the half-inhibitory concentration (IC50) in test [2] stood at 625 nM. In the case of `C[C@H](Oc1cc(N2CCc3cccnc32)nc(-c2noc3c2CCC[C@@]32CCCc3sc(N)c(C#N)c32)n1)[C@@H]1CCCN1C` [II-90], the IC50 in test [3] came out at 33 nM. Regarding `CO[C@@H]1C[C@@H]([C@H](C)Oc2cc(-c3ccn(C)n3)nc(-c3noc4c3CCC[C@@]43CCCc4sc(N)c(C#N)c43)n2)N(C)C1` [II-91], the IC50 in test [1] stood at 394 nM; in test [2], 247 nM. Take `C[C@H](Oc1cc(-c2cccc(CO)c2)nc(-c2noc3c2CCC[C@@]32CCCc3sc(N)c(C#N)c32)n1)[C@@H]1CCCN1C` [II-97]: in test [2], the IC50 worked out at 598 nM. As to `C[C@H](Oc1cc(-c2ccc(N)nc2)nc(-c2noc3c2CCC[C@@]32CCCc3sc(N)c(C#N)c32)n1)[C@@H]1CCCN1C` [II-101], the IC50 in test [3] came out at 8 nM.

`C[C@H](Oc1cc(-n2ccc(Br)n2)nc(-c2noc3c2CCC[C@@]32CCCc3sc(N)c(C#N)c32)n1)[C@@H]1CCCN1C` [II-110]: in test [3], the half-inhibitory concentration (IC50) turned out to be 7 nM. In turn, `C[C@H](O)Cn1ccc(-c2cc(O[C@@H](C)[C@@H]3CCCN3C)nc(-c3noc4c3CCC[C@@]43CCCc4sc(N)c(C#N)c43)n2)n1` [II-112] displayed an IC50 in test [1] of 248 nM. Turning to `COC(=O)c1ccc(-c2cc(O[C@@H](C)[C@@H]3CCCN3C)nc(-c3noc4c3CCC[C@@]43CCCc4sc(N)c(C#N)c43)n2)o1` [II-114], the half-maximal inhibitory concentration (IC50) in test [2] was 358 nM. Regarding `C[C@H](Oc1cc(-c2ccn(C[C@@H](C)O)n2)nc(-c2noc3c2CCC[C@@]32CCCc3sc(N)c(C#N)c32)n1)[C@@H]1CCCN1C` [II-117], the IC50 in test [1] turned out to be 276 nM. Regarding `C[C@H](Oc1cc(-n2ccc(-c3ccccn3)n2)nc(-c2noc3c2CCC[C@@]32CCCc3sc(N)c(C#N)c32)n1)[C@@H]1CCCN1C` [II-119], the IC50 in test [3] was found to be 6 nM; in test [2], 252 nM. `C[C@H](Oc1cc(-n2ccnc2)nc(-c2noc3c2CCC[C@@]32CCCc3sc(N)c(C#N)c32)n1)[C@@H]1C[C@@H](F)CN1C` [II-120]: the half-inhibitory concentration (IC50) in test [2] stood at 234 nM. For the molecule `CNC(=O)c1cn(-c2cc(O[C@@H](C)[C@@H]3CCCN3C)nc(-c3noc4c3CCC[C@@]43CCCc4sc(N)c(C#N)c43)n2)nn1` [II-122], the half-inhibitory concentration (IC50) in test [3] was 10 nM. Still for that read-out and setting: under `C[C@H](Oc1cc(-n2cc(-c3cccnc3)nn2)nc(-c2noc3c2CCC[C@@]32CCCc3sc(N)c(C#N)c32)n1)[C@@H]1CCCN1C` [II-123] stands 11 nM.

In general, IC50 refers to the concentration that gives 50% inhibition.
